According to US6465483B1, “Annelated dihydropyridines and the use thereof for preparing pharmaceutical preparations” (Boehringer Ingelheim GmbH, priority 1993, dated 2002):

Key:
[1] = test system: unselective cation channels (UCC); assay: Inhibition of Ca2+ entry through unselective cation channels after Thapsigargin stimulation, fura-2-charged RBL-hm 1 cells; assay type: cell-based, rat; conditions: Table 5, 0.1 μM Thapsigargin, test substance 10^−5 M
Method: For screening purposes, fura-2-charged adhesive RBL-hm 1 cells are stimulated with 0.1 μM Thapsigargin in a Ca^2+-free incubation medium. After 4 minutes, extracellular Ca^2+ is restored to a concentration of 1.5 mM and, using the fura-2-fluorescence, the excessive increase in the cytoplasmic Ca^2+-concentration caused by a massive transmembranal Ca^2+-entry through unselective cation channels is recorded.
The kinetics of the cytoplasmic Ca^2+-concentration is recorded continuously as a concentration/time curve after the cell activation stimulated by Thapsigargin (0.1 μM). The curves of two activated cell cultures are compared in the presence and absence of 10 μM test substance. The area under these curves (area under the curve=AUC) is integrated and recorded as a measurement of cell activation. The inhibitory potency of the UCC-blockers tested is determined using the following equation: [formula]
AUCinh area under the curve recorded in the presence of the stimulant plus 10 μM inhibitory test substance.
AUC control=area under the curve which is recorded only after the addition of the stimulant.
The uniform concentration of the test substances is 10^−5 mol or 10^−6 mol)

RBL-2H3-cells = assay: Antigen (DNP-BSA)-induced activation of sensitised RBL-2H3-cells, fluorometric cytoplasmic calcium measurement; assay type: cell-based, rat; conditions: 10 μM
Method: Individual RBL-2H3-cells (a tumour cell line related to the mast cells) adhering to glass slides are used.
The cultivation and attachment of the RBL-2H3-cells are carried out by the method described by HIDE and BEAVEN (1991). In order to sensitise the adhesive RBL-2H3-cells the cells are incubated for 2 hours at ambient temperature with a 1:2000 diluted commercial gammaglobulin E-solution against a dinitrophenol-bovine serum albumin complex (DNP-BSA-antigen). The cells are then washed. By the addition of 0.1 ml of DNP-BSA-solution (10 μg/ml) there is a massive immunological cell activation which is mediated by a cytoplasmic Ca^2+-overload. The fluorometric calcium measurement in the cytoplasm of individual adhering RBL-2H3-cells is carried out analogously to the method described by KUDO and OGURA (1986) for neuronal cells, which is also explained hereinbefore in this specification.
The comparison used in these investigations is (10 μM) chromoglycate which brings about an approximately 50% inhibition of the antigen-induced cell activation.

Row | Structure (SMILES) | % H (10^−5 M), percentage inhibition of UCC after Thapsigargin stimulation [1] | inhibition of the antigen-induced cell activation (RBL-2H3-cells)
1 | COc1cc2c(cc1OC)C(C(C(=O)N(Cc1ccccc1)Cc1ccccc1)c1ccsc1)=NCC2 (racemic) [(R,S)-(3,4-Dihydro-6,7-dimethoxyisoquinolin-1-yl)-2-(3-thienyl)-N,N-dibenzyl-acetamide] | 90.9% | 
2 | O=C(O)c1cc(=O)c2c(OCC(O)COc3cccc4oc(C(=O)O)cc(=O)c34)cccc2o1 [chromoglycate] |  | approximately 50%
